From patent US11484032B2, “Compositions for inhibition of insect sensing” (Vanderbilt University, priority 2011, dated 2022) come the findings set out here.

Read-outs that look alike come from different tables or passages of the source.

Common to all, as to assay type: cell-based
One experiment deals with T1, Orco (AgORco) (Anopheles gambiae, UniProt Q7QCC7).
T1 construct: expressed in transfected cells
T1 sequence (Q7QCC7 1-478): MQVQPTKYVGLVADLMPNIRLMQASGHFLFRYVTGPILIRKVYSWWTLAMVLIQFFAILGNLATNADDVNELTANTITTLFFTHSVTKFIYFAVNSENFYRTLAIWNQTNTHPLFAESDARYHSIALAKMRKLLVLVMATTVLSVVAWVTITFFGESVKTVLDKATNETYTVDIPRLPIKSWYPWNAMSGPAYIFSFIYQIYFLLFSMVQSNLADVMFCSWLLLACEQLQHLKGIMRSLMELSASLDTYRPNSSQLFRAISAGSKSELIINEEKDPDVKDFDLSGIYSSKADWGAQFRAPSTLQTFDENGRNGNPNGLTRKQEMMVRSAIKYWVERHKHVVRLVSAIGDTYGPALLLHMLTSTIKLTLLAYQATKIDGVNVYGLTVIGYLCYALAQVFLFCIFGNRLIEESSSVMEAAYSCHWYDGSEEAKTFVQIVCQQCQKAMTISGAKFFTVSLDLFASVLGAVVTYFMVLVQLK
Briefly: Fluo-4 Ca2+ imaging, HEK293 cells expressing Orco alone. The settings on record: for EC50: read-out: Orco Agonist EC50; for Emax: HEK293, read-out: Orco Agonist % value Of VUAA1. The source says: (§1) For transient transfections, ORs were cloned into pCl (Promega) and transfected into Flp-In™ T-REx™293 cell lines (Invitrogen) with Fu GENE6 (Roche). For the creation of stable cell lines, a cell culture expression vector capable of expressing Orco in conjunction with a conventional OR, pcDNA5/FRT/TO (Invitrogen) was modified to create two individual expression cassettes each under the control of a separate CMV/Tet02 promoter and a BGH poly-adenylation signal. Cells (as above) were transfected with the modified pcDNA5 plasmid along with POG44 (a Flp recombinase expression plasmid) to facilitate site-specific recombination. Stable cell lines were selected using Hygromycin B (Invitrogen). Cells were maintained in DMEM (Invitrogen) supplemented with 10% Tetracycline-free FBS (HyClone) and 15 ng/ml Blasticidin. For fluorometric Ca2+ measurements, stable lines expressing ORs of interest were seeded at 20,000 cells/well in black wall, poly-lysine coated 384-well cell culture plates (Greiner) and treated with […] tetracycline (Sigma) overnight to induce OR expression. Cells were dye-loaded with 1.8 uM Fluo-4 AM (Molecular Probes), 2.5 mM Probenecid (Molecular Probes) in assay buffer (20 mM HEPES, IX HBSS) for 45 minutes at 37° C. in 5% CO2 prior to each assay. Ca^2+ mobilization was assayed in an FDSS6000 (Hamamatsu). Baseline readings were taken for 20 s before automated addition of compound previously diluted in DMSO and assay buffer. Ratios were described as Maximum/Minimum response and each response was normalized to the maximum responder.

Another experiment deals with T2, AgORco+AgOR48 (Anopheles gambiae, UniProt Q7QCC7).
T2 construct: expressed in transfected cells
T2 sequence (Q7QCC7 1-478): T1 sequence (Q7QCC7 1-478)
Briefly: Ca2+ imaging, HEK cells expressing AgORco+AgOR48. The settings on record: for Orco + 48 Agonist EC50 (given only relative to VUAA1): comparison with VUAA1 in words; for Orco + 48 Agonist % value Of VUAA1: relative to VUAA1; for EC50: read-out: Orco + 48 Agonist EC50; for Orco + 48 Agonist EC50 (relative to VUAA1): stated in words relative to VUAA1.
From the text: as §1
The ability of VUAA1 and its analogs to agonize representative ORco proteins from dipteran (Anopheles gambiae, AgORco), lepidopteran (Heliothis virescens, HvORco) and hymenopteran (Harpegnathos saltator, HsORco) orders was tested. […] Furthermore, the hierarchy of VUAA series potency was the same, irrespective of whether AgORco was co-expressed with AgOR65 or AgOR48 tuning ORs (FIG. 45). Without wishing to be bound by a particular theory, odorant ligands are thought to activate the complex via interaction with the tuning ORx and thereby affect ORco/ORx channel properties. […] These findings indicate VUAA-class OR co-modulators are viable compounds for further development as broad-spectrum insect control strategies, and VUAA4 can provide an advance in the pharmacological profile of VUAA-based compounds.

In another experiment the target is T3, AgORco+AgOR10 (Anopheles gambiae, UniProt Q7QCC7).
T3 construct: expressed in transfected cells
T3 sequence (Q7QCC7 1-478): T1 sequence (Q7QCC7 1-478)
Briefly: Fluo-4 Ca2+ imaging, HEK293 cells expressing Orco+AgOR10. Set-up: Orco 10 + Orco Angatonist % Reduction / Orco 10 + Orco Agonist % of control: concentration or dose not given beside the values. To be noted: 10 + Orco; for Orco 10 + Orco Agonist, compared with VUAA1: agonist mode, qualitative, relative to VUAA1.
From the text: as §1
As part of an ongoing, cell based calcium imaging screen for novel small-molecule modulators of AgORs that might disrupt olfactory-driven mosquito behaviors (Rinker et al manuscript in preparation), the inventors identified a number of compounds that activated AgOR10+AgORco-expressing human embryonic kidney (HEK293) cells. One of these compounds, (FIG. 3 A) denoted here as VUAA1, elicited activity consistent with allosteric agonism and was pursued for its novel properties. The identity of VUAA1 was verified using high-resolution mass spectrometry (HRMS) as well as ^1H and ^13C NMR. […] As AgORco was the common element among these functional responses, the inventors postulated that VUAA1 was a potential AgORco agonist.

In the next experiment the target is T4, AgOrco+AgOR65 (Anopheles gambiae, UniProt Q7QCC7).
T4 construct: expressed in transfected cells
T4 sequence (Q7QCC7 1-478): T1 sequence (Q7QCC7 1-478)
Briefly: Ca2+ imaging, HEK cells expressing AgOrco+AgOR65. The settings on record: Orco + 65; read-out: Orco + 65 Agonist EC50.
From the text: as §1
For VUAA0, a single methyl from the para position of the aniline ring (compound VUAA0, FIG. 44) in the VUAA1 structure was removed. […] In VUAA0.5, unsaturation was introduced at the para position of the aniline ring (VUAA0.5, FIG. 44). […] In VUAA2, the ethyl group of the aniline ring in VUAA1 was replaced with an isopropyl group (VUAA2, FIG. 44).

With `CCn1c(SCC(=O)Nc2ccc(C(C)C)cc2)nnc1-c1ccn(C)n1`, the “Orco Agonist % value Of VUAA1” value at Orco (AgORco) (Orco alone, agonist, relative to VUAA1) is “<VUAA1”. For the same compound, on Orco (AgORco) (Orco alone, agonist, stated in words relative to VUAA1), the “Orco Agonist EC50 (relative to VUAA1)” value is “<VUAA1”.
With `CCn1c(SCC(=O)Nc2ccc(Br)cc2F)nnc1-c1ccncc1`, on AgORco+AgOR48 (Orco + 48), the “Orco + 48 Agonist EC50 (given only relative to VUAA1)” value is given as “<VUAA1” and the “Orco + 48 Agonist % value Of VUAA1” value is on record as “<VUAA1”.
Turning to `CCn1c(SCC(=O)Nc2ccc(Br)cc2F)nnc1-c1cccnc1`, at Orco (AgORco) (Orco alone, qualitative, relative to VUAA1), the “Orco Agonist value compared with VUAA1” value is “<VUAA1”. For the same compound, on Orco (AgORco) (Orco alone), the EC50 (commonly the concentration at which the effect is half-maximal) was determined as 192 µM. In addition, the “Orco 10 + Orco Agonist, compared with VUAA1” value at AgORco+AgOR10 is on record as “<VUAA1”. The “Orco 10 + Orco Angatonist % Reduction” value at AgORco+AgOR10 (antagonist mode) is 0.00%.
As for `CCn1c(SCC(=O)Nc2ccc(C(C)C)cc2)nnc1-c1ccncc1`, the Emax on Orco (AgORco) turned out to be 136%. Further, the EC50 at Orco (AgORco) (Orco alone) stood at 7.4 µM; on AgOrco+AgOR65 it was 8.2 µM; at AgORco+AgOR48 (Orco + 48), 3.5 µM. For the same compound, the “Orco + 48 Agonist % value Of VUAA1” value on AgORco+AgOR48 (Orco + 48) came out at 112%.
In the case of `CCc1ccc(NC(=O)CSc2nnc(-c3ccncc3)n2CC)cc1`, at AgORco+AgOR48 (Orco + 48), the “Orco + 48 Agonist EC50 (given only relative to VUAA1)” value is “<VUAA1” and the “Orco + 48 Agonist % value Of VUAA1” value is “<VUAA1”.
For the compound `CCCn1c(SCC(=O)Nc2ccc(C(C)C)cc2)nnc1-c1ccncc1`, the EC50 at AgORco+AgOR48 (Orco + 48, agonist) was found to be 19 µM.
For `CCn1c(SCC(=O)Nc2ccc(C(C)C)cc2)nnc1-c1cc[nH]c1`, at AgORco+AgOR48 (Orco + 48, agonist), the concentration for a half-maximal effect (EC50) was determined as 13.7 µM and the “Orco + 48 Agonist % value Of VUAA1” value was “Poor”.
For the compound `C=CCn1c(SCC(=O)Nc2ccc(C(C)C)cc2)nnc1-c1ccncc1`, at AgORco+AgOR48 (Orco + 48, agonist), the “Orco + 48 Agonist % value Of VUAA1” value is reported as “<VUAA1” and the “Orco + 48 Agonist EC50 (relative to VUAA1)” value is reported as “<VUAA1”.
On to `C=Cc1ccc(NC(=O)CSc2nnc(-c3cccnc3)n2CC)cc1` [drawing 376], for which the Emax at Orco (AgORco) amounted to 57%. In addition, the half-maximal effective concentration (EC50) on Orco (AgORco) (Orco alone) amounted to 102 µM; on AgORco+AgOR48 (Orco + 48), 37.4 µM. Further, the “Orco 10 + Orco Agonist, compared with VUAA1” value at AgORco+AgOR10 is recorded as “<VUAA1”. Besides, the “Orco + 48 Agonist % value Of VUAA1” value on AgORco+AgOR48 (Orco + 48) stood at 77%.
Turning to `C=Cc1ccc(NC(=O)CSc2nnc(-c3ccncc3)n2C2CC2)cc1`, on AgORco+AgOR48 (Orco + 48, agonist), the “Orco + 48 Agonist % value Of VUAA1” value is listed as “<VUAA1” and the “Orco + 48 Agonist EC50 (relative to VUAA1)” value is “<VUAA1”.
Take `CCn1c(SCCC(=O)Nc2ccc(C(C)C)cc2)nnc1-c1cccnc1`: the EC50 at AgORco+AgOR48 (Orco + 48) stood at 2.2 µM.
For the compound `CCCc1ccc(NC(=O)CSc2nnc(-c3ccncc3)n2CC)cc1`, at AgORco+AgOR48 (Orco + 48), the “Orco + 48 Agonist EC50 (given only relative to VUAA1)” value is “<VUAA1” and the “Orco + 48 Agonist % value Of VUAA1” value is “<VUAA1”.
On to `C=Cc1ccc(NC(=O)CSc2nnc(-c3ccncc3)n2CC)cc1`, for which, at AgORco+AgOR48 (Orco + 48), the “Orco + 48 Agonist EC50 (given only relative to VUAA1)” value is listed as “<VUAA1” and the “Orco + 48 Agonist % value Of VUAA1” value is “<VUAA1”.
As to `CCn1c(SCC(=O)Nc2ccc(C(C)C)cc2)nnc1-c1cccnc1` [drawing 381], on Orco (AgORco), the Emax worked out at 102%. The EC50 worked out at 12.9 µM at Orco (AgORco) (Orco alone), 9.6 µM at AgOrco+AgOR65 and 9.9 µM on AgORco+AgOR48 (Orco + 48). Further, the “Orco 10 + Orco Agonist, compared with VUAA1” value at AgORco+AgOR10 was “>VUAA1”. For the same compound, the “Orco + 48 Agonist % value Of VUAA1” value on AgORco+AgOR48 (Orco + 48) is listed as 109%.
